Test results published in patent US20240156860A1, “METHOD OF TREATING INFECTED AND NONINFECTED BURN WOUNDS” (priority 2021, published 2024).

Experiments:
Assay type in all cases: cell-based, Pseudomonas aeruginosa
[1] = test system: PAO1; test: Checkerboard assay for MIC and FIC determination; conditions: strain PAO1
Protocol: (§1) The inventors further confirmed the bactericidal activity of AB569 gel against various clinical strains of PA isolated from burn wound patients by synergy measurements using the checkerboard analysis. […] FICI=Fractional inhibitory concentration index. […] is synergistic; 0.5<FICI<1 is weak synergistic.
(§2) 96-well polystyrene plates were filled with 100 μl of LB, pH 6.5 and 10% SS hydrogel (Smith and Nephew, London, UK). Row A was filled with 100 μl of a 4× stock of Na2-EDTA (16 mM) and […] was filled with 4× NaNO2 stock (256 mM), bringing both to a 2× concentration. Two-fold serial dilutions were performed such that a concentration gradient of each was created. Column 12 was filled with media to represent a negative control. An overnight culture of bacteria was adjusted to an OD600 of 0.5 in LB media. This was then diluted 1:1000 into fresh media, which was then added to the checkerboard plate (columns 1-11). This dilution was selected as it harbored ˜5×10^5 CFU/ml. Column 11 was the positive control. Plates were incubated at 37° C. The cell turbidity was determined using a 96 well plate reader after 24 hours inoculation. The threshold used for a positive cutoff to calculate MICs and FICs was 0.001 after blank (media) subtraction.

[2] = test system: clinical strains of PA isolated from burn wounds; test: Checkerboard assay for MIC and FIC determination; conditions: for MIC NaNO2 / MIC EDTA: LB pH 6.5, 10% SS hydrogel, 24 hours; for FIC NaNO2: NaNO2 in combination with EDTA
Protocol: as §1, §2

[3] = test system: bioluminescent PA Xen41; test: Broth based killing assay; conditions: for killing of PA Xen41: 2 mM Na2-EDTA and/or 30 mM NaNO2 with gel (Solosite) 1:100, LB pH 6.5, 48 hours
Protocol: The efficacy of a formulation according to the present disclosure was tested in vitro using an overnight culture of bioluminescent PA Xen41, diluted in LB media (pH 6.5) along with a gel (Solosite®, herein SS) at a 1:100 dilution. Bioluminescent PA was used for both in vitro and in vivo experiments.
(§3) Bioluminescent PA-Xen41 was grown overnight in LB media at 37° C. with shaking. Overnight cultures were diluted 100-fold into fresh LBN (LB-1% KNO3) 6.5 media and 5 ml aliquots were transferred to culture tubes. Final concentrations of 30 mM NaNO2 and/or 2 mM Na2-EDTA were added to each tube. Cells were grown anaerobically at 37° C. mimicking a mature biofilm. Samples were taken daily for 48 hours while the cells were still in the anaerobic chamber. Samples were serially diluted in PBS, pH 7.4, and 10 μl aliquot from each dilution placed on LB agar plates and grown aerobically overnight at 37° C. CFU were enumerated the next morning and converted to CFU/ml after multiplying by the dilution factor.

[4] = test system: clinical strains of PA isolated from human burn patients; test: Broth based killing assay on clinical strains; conditions: gel formulation; 2 mM Na2-EDTA and/or 30 mM NaNO2; strains with varying antibiotic sensitivity and resistance
Protocol: The efficacy of the AB569 gel formulation was tested on different clinical strains of PA isolated from human burn patients with varying sensitivity and resistance to antibiotics using a broth based killing assay.
as §3

[5] = LB pH 6.5, 10% SS hydrogel, 24 hours

Q: For `O=N[O-].[Na+]` [NaNO2], which “MIC NaNO2” value [1, 5] is on record?
A: 18.667 ± 12.220 mM

Q: And the “FIC NaNO2” value ([1]; NaNO2 in combination with EDTA)?
A: 4.083 ± 3.876 mM

Q: And the “MIC NaNO2” value ([2]; strain Burn #1-1)?
A: 26.667 ± 9.238 mM

Q: And the “FIC NaNO2” value ([2]; strain Burn #1-1)?
A: 5.333 ± 2.309 mM

Q: And the “MIC NaNO2” value ([2]; strain Burn #1)?
A: 18.667 ± 12.220 mM

Q: And the “FIC NaNO2” value ([2]; strain Burn #1)?
A: 4.167 ± 3.752 mM

Q: What about the “MIC NaNO2” value ([2]; strain Burn #2-1) of the same molecule?
A: 26.667 ± 9.238 mM

Q: What about the “FIC NaNO2” value ([2]; strain Burn #2-1) of the same molecule?
A: 6.667 ± 2.309 mM

Q: And the “MIC NaNO2” value ([2]; strain Burn #2)?
A: 14.667 ± 15.144 mM

Q: And the “FIC NaNO2” value ([2]; strain Burn #2)?
A: 7.333 ± 7.572 mM

Q: And the “MIC NaNO2” value ([2]; strain Burn #3-1)?
A: 21.333 ± 9.238 mM

Q: What about the “FIC NaNO2” value ([2]; strain Burn #3-1) of the same molecule?
A: 5.333 ± 2.309 mM

Q: And the “MIC NaNO2” value ([2]; strain Burn #3)?
A: 24 ± 13.856 mM

Q: What about the “FIC NaNO2” value ([2]; strain Burn #3) of the same molecule?
A: 6.667 ± 2.309 mM

Q: And the “MIC NaNO2” value ([2]; strain Burn #4-1)?
A: 21.333 ± 9.238 mM

Q: And the “FIC NaNO2” value ([2]; strain Burn #4-1)?
A: 9.333 ± 6.110 mM

Q: And the “MIC NaNO2” value ([2]; strain Burn #4)?
A: 13.333 ± 4.618 mM

Q: And the “FIC NaNO2” value ([2]; strain Burn #4)?
A: 2.75 ± 2.165 mM

Q: What about the “MIC NaNO2” value ([2]; strain Burn #5-1) of the same molecule?
A: 21.333 ± 9.238 mM

Q: And the “FIC NaNO2” value ([2]; strain Burn #5-1)?
A: 2.667 ± 1.155 mM

Q: What about the “MIC NaNO2” value ([2]; strain Burn #5) of the same molecule?
A: 13.333 ± 4.618 mM

Q: And the “FIC NaNO2” value ([2]; strain Burn #5)?
A: 4.667 ± 3.055 mM

Q: And the “MIC NaNO2” value ([2]; strain Burn #6-1)?
A: 13.333 ± 4.618 mM

Q: And the “FIC NaNO2” value ([2]; strain Burn #6-1)?
A: 2.333 ± 1.523 mM

Q: And the “MIC NaNO2” value ([2]; strain Burn #6)?
A: 18.667 ± 12.220 mM

Q: What about the “FIC NaNO2” value ([2]; strain Burn #6) of the same molecule?
A: 5.333 ± 2.309 mM

Q: And the “MIC NaNO2” value ([2]; strain Burn #7-1)?
A: 21.333 ± 9.238 mM

Q: And the “FIC NaNO2” value ([2]; strain Burn #7-1)?
A: 6 ± 3.464 mM

Q: And the “MIC NaNO2” value ([2]; strain Burn #7)?
A: 24 ± 13.856 mM

Q: And the “FIC NaNO2” value ([2]; strain Burn #7)?
A: 6.667 ± 2.309 mM

Q: And the “MIC NaNO2” value ([2]; strain Burn #8-1)?
A: 21.333 ± 9.238 mM

Q: And the “FIC NaNO2” value ([2]; strain Burn #8-1)?
A: 0.75 ± 0.433 mM

Q: And the “MIC NaNO2” value ([2]; strain Burn #8)?
A: 16 ± 0 mM

Q: What about the “FIC NaNO2” value ([2]; strain Burn #8) of the same molecule?
A: 2.167 ± 1.756 mM

Q: What about the “MIC NaNO2” value ([2]; strain Burn #9-1) of the same molecule?
A: 21.333 ± 9.238 mM

Q: And the “FIC NaNO2” value ([2]; strain Burn #9-1)?
A: 4.666 ± 3.055 mM

Q: And the “MIC NaNO2” value ([2]; strain Burn #9)?
A: 13.333 ± 4.618 mM

Q: And the “FIC NaNO2” value ([2]; strain Burn #9)?
A: 5.333 ± 2.309 mM

Q: What about the “MIC NaNO2” value ([2]; strain Burn #10-1) of the same molecule?
A: 16 ± 0 mM

Q: And the “FIC NaNO2” value ([2]; strain Burn #10-1)?
A: 4 ± 0 mM

Q: And the “MIC NaNO2” value ([2]; strain Burn #11-1)?
A: 32 ± 27.713 mM

Q: What about the “FIC NaNO2” value ([2]; strain Burn #11-1) of the same molecule?
A: 8 ± 0 mM

Q: And the “MIC NaNO2” value ([2]; strain Burn #12-1)?
A: 26.667 ± 9.238 mM

Q: And the “FIC NaNO2” value ([2]; strain Burn #12-1)?
A: 6 ± 3.464 mM

Q: What about the “killing of PA Xen41” value [3] of the same molecule?
A: completely killed

Q: And the “killing of PA Xen41” value ([3]; listed as A-NO2^−)?
A: complete and maintained 48 hours

Q: What about the “bioluminescent signals of XEN41-containing plates (IVIS)” value ([3]; 48 hours after treatment) of the same molecule?
A: elimination of bioluminescent signals

Q: `O=C([O-])CN(CCN(CC(=O)[O-])CC(=O)O)CC(=O)O.[Na+].[Na+]` [Na2-EDTA, di-sodium EDTA] was tested. Which “FIC EDTA” value ([1]; EDTA in combination with NaNO2) did it give?
A: 0.333 ± 0.144 mM

Q: And the “MIC EDTA” value [1, 5]?
A: 0.833 ± 0.289 mM

Q: And the “MIC EDTA” value ([2]; strain Burn #1-1)?
A: 0.5 ± 0^ mM

Q: What about the “MIC EDTA” value ([2]; strain Burn #1) of the same molecule?
A: 0.833 ± 0.289 mM

Q: And the “MIC EDTA” value ([2]; strain Burn #2-1)?
A: 0.833 ± 0.289 mM

Q: And the “MIC EDTA” value ([2]; strain Burn #2)?
A: 0.5 ± 0^ mM

Q: What about the “MIC EDTA” value ([2]; strain Burn #3-1) of the same molecule?
A: 0.667 ± 0.289 mM

Q: And the “MIC EDTA” value ([2]; strain Burn #3)?
A: 0.833 ± 0.289 mM

Q: And the “MIC EDTA” value ([2]; strain Burn #4-1)?
A: 0.5 ± 0^ mM

Q: What about the “MIC EDTA” value ([2]; strain Burn #4) of the same molecule?
A: 0.667 ± 0.289 mM

Q: And the “MIC EDTA” value ([2]; strain Burn #5-1)?
A: 0.5 ± 0^ mM

Q: What about the “MIC EDTA” value ([2]; strain Burn #5) of the same molecule?
A: 0.5 ± 0^ mM

Q: And the “MIC EDTA” value ([2]; strain Burn #6-1)?
A: 0.5 ± 0^ mM

Q: And the “MIC EDTA” value ([2]; strain Burn #6)?
A: 0.667 ± 0.289 mM

Q: What about the “MIC EDTA” value ([2]; strain Burn #7-1) of the same molecule?
A: 0.5 ± 0^ mM

Q: What about the “MIC EDTA” value ([2]; strain Burn #7) of the same molecule?
A: 0.833 ± 0.289 mM

Q: And the “MIC EDTA” value ([2]; strain Burn #8-1)?
A: 0.5 ± 0^ mM

Q: And the “MIC EDTA” value ([2]; strain Burn #8)?
A: 0.667 ± 0.289 mM

Q: What about the “MIC EDTA” value ([2]; strain Burn #9-1) of the same molecule?
A: 0.5 ± 0^ mM

Q: What about the “MIC EDTA” value ([2]; strain Burn #9) of the same molecule?
A: 0.5 ± 0^ mM

Q: What about the “MIC EDTA” value ([2]; strain Burn #10-1) of the same molecule?
A: 0.416 ± 0.144 mM

Q: And the “MIC EDTA” value ([2]; strain Burn #11-1)?
A: 0.667 ± 0.289 mM

Q: And the “MIC EDTA” value ([2]; strain Burn #12-1)?
A: 0.5 ± 0^ mM

Q: What about the “killing of PA Xen41” value [3] of the same molecule?
A: significant killing

Q: What about the “killing of clinical strains of PA” value [4] of the same molecule?
A: efficient killing
